Experimental findings from patent US20250144050A1, “AMINOTHIOL-CONJUGATES, COMPOSITIONS, AND METHODS OF USE THEREOF” (THE BURLINGTON HC RESEARCH GROUP, INC., priority 2021, published 2025) are described below.

Series [1] has as its system HMESO-1 malignant mesothelioma cells. It counts as cell-based.
Method: (§4) Trypan Blue exclusion was applied as a complementary confirmation probe for cell death.
(§5) Statistical comparisons of differences in individual dose-response metrics between individual/paired drug treatments and various cell lines were conducted using the Student's t-test, with P-values <0.05 considered significant.
(§6) Relative cell growth inhibition values for differing levels each drug alone and in combination were input into SynergyFinder to generated dose-response curves for each drug alone, to produce a dose-response matrix, to visualize the distribution of areas of differing degrees of synergism in a 2-dimension heatmap and 3-dimension volcano plot, and to calculate average and maximum synergy scores in selected human cancer cell lines. […] Synergy scores <10 means that the interaction between two drugs was likely to be antagonistic; scores from −10 to 10 means the interaction between two drugs was likely to be additive; and scores >10 means the interaction between two drugs was likely to be synergistic.
For a further series, the system named is HCC38 cells. Briefly: CyQUANT cell viability assay, 48-hour exposure. It counts as cell-based, human. The method, then: (§1) After drug treatments, fluorescence readings from 96-well plates were obtained using the CyQUANT dye and compared to standard curves for each cell line to determine cell viability. […] Trypan blue exclusion was used to estimate cell numbers in a few pilot experiments and was thereafter applied to confirm cell death.
A series of experiments was conducted to assess the relative efficacy of 4SP65, 1LP65, and amifostine as single agents in the same human cancer cell lines. First, the effectiveness of 4SP65 was tested against 15 cancer cell lines derived from seven tissues. […] The effectiveness of 0 to ≤500 μM amifostine was tested in sets of cancer cell lines reported to have either medium, high, or no expression of alkaline phosphatase.
Trans. R Soc. Lond. […] Using cell numbers based on fluorescence measurements and standard curves [time zero, (Tz), control growth, (C), and test growth in the presence of drug at five or more concentration levels (Ti)], the percentage growth was calculated at each drug concentration level. The percentage of growth inhibition was calculated as follows:
(§2) The LC50/99 was calculated using Equation 2=−50 and Eq. 2=−99, respectively. […] For NHMECs, the relationships between drug exposure levels and fluorescence units were used to define dose-response metrics. The selectivity index (SI) values for individual drug treatments were calculated as IC50 levels in NHMECs divided by the IC50 values in cancer cell lines.

The subject of another series is HPM3 cells. Briefly: Dose-response metrics in immortalized, non-tumorigenic cells. The format is cell-based. How it is done:
(§3) To determine potential cytostatic or cytocidal effects of BRG prodrugs in immortalized, non-tumorigenic cells, Vero, HEK-293t, LP9, and HPM3 cells were exposed to 4SP65 while only Vero cells also were treated with 1LP65. […] Comparisons across other dose-response metrics could not be made because such levels of effects were not induced in NHMECs exposed to 4SP65. […] Since cytostatic and cytolytic effects at the TGI and LC50/99 levels were induced in Vero cells exposed to 1LP65 but not in NHMECs, there is a significant difference in the effects of 1LP65 in Vero cells compared to NHMECs, but p values based upon t-test evaluations cannot be defined due to lack of numerical data.

For series [2], the system named is SKOV3 ovarian cancer cells. It counts as cell-based.
Method: as §4, §5, §6
The nature of series [3]: Dose-response metrics in immortalized, non-tumorigenic cells. It counts as cell-based. Particulars: African green monkey, Vero cells (immortalized, non-tumorigenic); read-out: LC50 (the source's name). The method, then: as §3
The test system of another series is PC3 cells. Briefly: CyQUANT cell viability assay, 48-hour exposure. The format is cell-based. The note with it: Homo sapiens, PC-3. The method, then:
as §1
A series of experiments was conducted to assess the relative efficacy of 4SP65, 1LP65, and amifostine as single agents in the same human cancer cell lines. First, the effectiveness of 4SP65 was tested against 15 cancer cell lines derived from seven tissues. […]
Trans. […] Using cell numbers based on fluorescence measurements and standard curves [time zero, (Tz), control growth, (C), and test growth in the presence of drug at five or more concentration levels (Ti)], the percentage growth was calculated at each drug concentration level. The percentage of growth inhibition was calculated as follows:
as §2

Method for H1975 cells: as §4, §5, §6

As for 4-star PEG-S-S-WR1065 [4SP65], the CC50 stood at 7 ± 0.1 µM in series [1], 7.2 ± 1.4 µM in the series with H1975 cells and 9.7 ± 0.5 µM in series [2]. Besides, the 50% growth inhibitory concentration (GI50) – broadly, the concentration at which growth is held to half of that of the control – in series [1] (HMESO-1, each drug alone, 48 h) was 2 ± 0.3 µM; in the series with HPM3 cells, roughly 10 µM; in the series with H1975 cells (H1975, each drug alone, 48 h), 3.2 ± 1.1 µM; in series [2] (SKOV3, each drug alone, 48 h) it was 4.3 ± 1 µM. Moreover, the IC50 (in general, the concentration needed to halve the response being measured) in series [1] (HMESO-1, each drug alone, 48 h) stood at 4.7 ± 0.2 µM; in the series with H1975 cells (H1975, each drug alone, 48 h), 3.5 ± 0.9 µM; in series [2] (SKOV3, each drug alone, 48 h), 5.2 ± 1 µM. In addition, the LC99 in series [1] (HMESO-1, each drug alone, 48 h) was determined as 12.4 ± 0.1 µM; with H1975 cells (H1975, each drug alone, 48 h), 8.9 ± 1.6 µM; in series [2] (SKOV3, each drug alone, 48 h), 10.0 ± 0.8 µM. The TGI (as a rule, the concentration giving total growth inhibition) in series [1] (HMESO-1, each drug alone, 48 h) came to 4.3 ± 0.2 µM; in the series on H1975 cells (H1975, each drug alone, 48 h), 5.5 ± 1.4 µM; in series [2] (SKOV3, each drug alone, 48 h), 7.3 ± 0.8 µM. Moreover, the “Relative potency compared to amifostine at IC50” value in the series on HCC38 cells (HCC38 cells) turned out to be 67 fold. The compound further gave a selectivity index in the series with HCC38 cells (IC50 of 76 in most sensitive NHMEC strain / IC50 in HCC38) greater than 19. The “fold more effective as cytostatic agent than PRIMA-1/PRIMA-1met (GI50)” value in series [2] (TP53-null SKOV3 cells) turned out to be 16 fold.

On to `COCCOCCOCCOCCOCCOCCSSCCNCCCN` [1LP65, m-PEG6-S-S-WR1065], for which, in series [3], the CC50 was 129 ± 3.4 µM. Further, it took 22.9 µM to inhibit growth in the series with PC3 cells by half (GI50).
